# According to patent US10709790B2, “Chemical conjugates of Evans Blue derivatives and their use in the production of long-acting therapeutics” (THE UNITED STATES OF AMERICA, AS REPRESENTED BY THE …, priority 2015, dated 2020):
# Key:
# blood glucose = experiment: Plasma glucose levels in Type 2 diabetic cynomolgus monkeys; format: in vivo; settings: one-time s.c. injection; Abextide II 165 ug/kg, albiglutide 0.9 mg/kg; compared to placebo
# Protocol: (§1) The efficacy and pharmacokinetics of MEB-C3-Cys40-Extendin 4 (Abextide II) was studied in primates. Nine Type 2 diabetic cynomolgus monkeys were separated into 3 groups and each group was injected with one of albiglutide (positive control, 0.9 mg/kg), Abextide II (165 μg/kg), or a saline placebo, as a one-time subcutaneous injection. The structure of Abextide II is shown below.
# (§2) Plasma glucose levels and body weight were measured, and an intravenous glucose tolerance test (IVGTT) was also performed to assess the efficacy and pharmacokinetics of the compounds.
# plasma glucose = experiment: Intravenous glucose tolerance test (IVGTT) in Type 2 diabetic cynomolgus monkeys; format: in vivo; settings: plasma glucose at 0, 5, 15 and 30 min; 2 hours after treatment vs one week before
# Protocol: as §1, §2
# Intravenous glucose tolerance test was performed on all animals one week before (baseline) and 2 hours after treatment. […] The areas under curve (AUCs) of the plasma glucose level at 0, 5, 15 and 30 min were calculated to quantify IVGTT.
substance,measurement,setting,value
Albiglutide,reduction of blood glucose level,blood glucose,unable to reduce blood glucose level
same,IVGTT area under curve (AUC) of plasma glucose level versus baseline before treatment,plasma glucose,significant differences were not observed
